The text below walks through data of patent US20040022777A1, “Fragments and antagonists of heat shock protein 60” (priority 1999, published 2004).

Ends that are not written are not given here.

Type in all cases: cell-based, mouse
In data set [1] the test system is bone marrow-derived macrophages of C3H/HeJ mice (mutant Toll-like receptor 4). As to the kind of experiment: TNFα production by bone marrow-derived macrophages with mutant Tlr4 (sandwich ELISA). The conditions noted are these: C3H/HeJ macrophages; LPS 10 ng/ml, hsp60 10 μg/ml, oligonucleotides 30 μg/ml; 6 h.
Data set [2] has the same test system. Put plainly: NO (nitrite) production by bone marrow-derived macrophages with mutant Tlr4 (Griess reaction). The conditions noted are these: Tlr4 wild-type compared with Tlr4 defective macrophages; oligonucleotide 30 μg/ml; 24 h. On the technique in general: Nitrite, measured by Griess reagent, commonly stands in for NO production.
Data set [3] relates to hsp60 induced TNFα and Nitric oxide (NO) secretion in J774 cells. Put plainly: Screening of 10-mer peptides for inhibition of hsp60 induced (and CpG induced) TNFα secretion. The conditions noted are these: crude peptides at a dilution of 1:10. The method, then: The crude peptides were re-suspended in 500 μl water and tested at a dilution of 1:10, for inhibition of hsp60 induced TNFα and Nitric oxide (NO) secretion in J774 cells (as described in example no. 1 of the application). Selected peptides were tested (in an equivalent assay) also for inhibition of CpG induced TNFα secretion. CpG is a non-specific immunostimulatory oligonucleotide motif with the sequence: […]. CpG DNA: a novel immunomodulator Trends Microbiol 1999; 7:64-5). CpG stimulates J774 cells to produce TNFα in a mechanism different to that used by hsp60 and thus serves as a negative control for non-selective inhibition of TNF secretion (which is not mediated through specific inhibition of hsp60). […] The peptides in this chart were selected for re-screening based on the activity found in screening all the 192 peptides synthesized. The results are presented as percent inhibition of TNF-secretion in response to induction with hsp60 or CpG, and are the average of two repeats.

The subject of data set [4] is bone marrow-derived macrophages of C57BL/6 and C3H/HeN mice. As to the kind of experiment: TNFα production by bone marrow-derived macrophages with wild-type Tlr4 (sandwich ELISA). The conditions noted are these: C57BL/6 and C3H/HeN macrophages; LPS 10 ng/ml, hsp60 10 μg/ml; 6 h.
Data set [5] shares this test system. Put plainly: NO (nitrite) production by bone marrow-derived macrophages with wild-type Tlr4 (Griess reaction). The conditions noted are these: C57BL/6 and C3H/HeN macrophages; LPS 10 ng/ml, hsp60 10 μg/ml; 24 h.

“5′-ACCGATAACGTTGCCGGTGACG-3′ (DNA ACCGATAACGTTGCCGGTGACG; chemistry not given here) [Pal+, immunostimulatory oligonucleotide containing a CpG motif]”: the TNFα response entry in data set [1] is reported as “less stimulatory”. Moreover, the “NO response / NO formation in the two macrophage types” value (shortened to “NO response / NO formation”) in data set [2] was “failed to induce NO formation”.

As to “5′-TCCATGACGTTCCTGATGCT-3′ (DNA TCCATGACGTTCCTGATGCT; chemistry not given here) [ODN1668, immunostimulatory oligonucleotide containing a CpG motif]”, in data set [1], the TNFα response result was “strong TNFα response”. Besides, the “NO response / NO formation” value in data set [2] is on record as “very similar NO response”.

Consider “5′-TCCATGAGCTTCCTGATGCT -3′ (DNA TCCATGAGCTTCCTGATGCT; chemistry not given here) [ODN1720, non-stimulatory oligonucleotide lacking a CpG motif]”, for which the TNFα response result in data set [1] is “did not provoke a response”. Moreover, the “NO response / NO formation” value in data set [2] is on record as “failed to induce NO formation”.

Regarding KVGGTSDVEV [Peptide No. 175], the “inhibition of hsp60 induced TNFα secretion, activity and specificity versus CpG induced TNFα secretion” value in data set [3] is “hsp60-inhibiting”.

For the substance “Lipopolysaccharide [LPS, reference compound]”, in data set [4], the TNFα secretion entry is “rapid secretion of large amounts of TNFα”. Further, the TNFα response entry in data set [1] is “no response”. In addition, in data set [5], the NO production entry is on record as “responded”.

For the substance VLKVGGTSDV [Peptide No. 173], in data set [3], the “inhibition of hsp60 induced TNFα secretion, activity and specificity versus CpG induced TNFα secretion” value was “hsp60-inhibiting”.
